Data published in the supplement of paper PMC10307832.

Tests used:
Test in all cases: relative viability (nuclei count vs DMSO), 5 days (fraction); higher = more cells survive
Trametinib + Bortezomib = compound: CC(=O)Nc1cccc(-n2c(=O)n(C3CC3)c(=O)c3c(Nc4ccc(I)cc4F)n(C)c(=O)c(C)c32)c1 [Trametinib] + CC(C)C[C@H](NC(=O)[C@H](Cc1ccccc1)NC(=O)c1cnccn1)B(O)O [Bortezomib] (partner 0.002 µM)
Procedure, shortened: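 Lung cancer cell lines were pin-tool dosed in 1536-well plates on the day after seeding, with either a lone drug or a fixed anchor-drug dose plus five library-drug doses (not always all listed) in √10 steps. Nuclei were counted on 4× images after 5 days. Relative viability is the ratio of treated-well to vehicle-well nuclei counts, with each value a median of duplicate plates.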

Trametinib = compound: CC(=O)Nc1cccc(-n2c(=O)n(C3CC3)c(=O)c3c(Nc4ccc(I)cc4F)n(C)c(=O)c(C)c32)c1 [Trametinib]
Procedure, shortened: (§1)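 Lung cancer cell lines received five library-drug doses (not always all listed) spaced by √10, pinned on vehicle-anchored 1536-well plates after an overnight stay at 37 °C. Five days later, with no medium change, nuclei were Hoechst-stained, imaged at 4× and counted with MetaXpress. Viability is treated-well nuclei relative to vehicle-well nuclei, as a median across plates. Passing plates had control CV below 25% and at least one doubling.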

[1] = compound: CN1C=C(C2=CC=CC=C21)/C=C\3/C4=C(C=CC=N4)NC3=O
Procedure, shortened: as §1

UMC-11
relative viability (Trametinib + Bortezomib; first compound 0.0025 µM): 0.777 | relative viability (Trametinib + Bortezomib; first compound 0.007906 µM): 0.836 | relative viability (Trametinib + Bortezomib; first compound 0.025 µM): 0.254 | relative viability (Trametinib + Bortezomib; first compound 0.07906 µM): 0.837 | relative viability (Trametinib + Bortezomib; first compound 0.25 µM): 0.663 | relative viability (Trametinib; 0.0025 µM): 0.931 | relative viability (Trametinib; 0.007906 µM): 1.03 | relative viability (Trametinib; 0.02 µM, anchor plate): 0.722 | relative viability (Trametinib; 0.025 µM): 0.658 | relative viability (Trametinib; 0.07906 µM): 0.92 | relative viability (Trametinib; 0.25 µM): 0.985 | relative viability ([1]; 0.02 µM): 0.876 | relative viability ([1]; 0.06325 µM): 0.884 | relative viability ([1]; 0.2 µM): 0.771 | relative viability ([1]; 0.6325 µM): 0.968 | relative viability ([1]; 2 µM): 1.17
